Reference: US20120196875A1, “PHARMACEUTICAL COMPOSITIONS FOR TREATMENT OF RESPIRATORY AND INFLAMMATORY DISEASES” (BOEHRINGER INGELHEIM INTERNATIONAL GMBH, priority 2010, published 2012)

Test system: Dunkin-Harley guinea pigs (OVA broncho-constriction)
Assay: OVA-induced bronchospasm in sensitized, anaesthetized guinea pigs (modified Konzett-Rössler method, pyrilamin pre-treatment)
Type: in vivo, guinea pig
Method: Male and female Dunkin-Harley guinea pigs were obtained from the Experimental Animal Breeding Centre of Harlan Winkelmann (Germany). After fasting overnight, but with free access to drinking water, animals with body weight of 400-500 g were used.
Bronchospasm was recorded with a modified version of the method of Konzett-Röβler (described by Walland et al, in “Compensation of muscarinic bronchial effects of talsaclidine by concomitant sympathetic activation in guinea pigs”, European Journal of Pharmacology, Volume 330, Issue 2-3, 9 July 1997, Pages 213-219). The animals were ventilated by means of a piston pump (starling ventilator, Hugo Sachs Elektronik, Germany) at a stroke volume of 1 ml/100 g body weight and at a rate of 60 strokes per min. The tubing which connected the tracheal cannula with the ventilator was provided with a branch leading to the bronchospasm transducer (bronchospasm transducer 7020, Ugo Basile, Italy). The air flow measurement is based on the hot wire anemometer principle. Any air flow will reduce the temperature of the wire, thereby decreasing its resistance in proportion of the flow. As the wire element is one arm of a Weaststone bridge, variations in resistance generate a proportional voltage output which feeds the amplifier/recording system (Notocord-hem, Notocord, France). Blood pressure and heart rate are monitored from a carotid artery in order to check the anesthesia and the variability of the preparation.
Guinea pigs were sensitized on 2 consecutive days with 20 μg ovalbumin (OVA) (Sigma, St. Louis, Mo.) and 20 mg Al(OH)3 in 0.5 mL saline, which were administered subcutaneously. Experiments, which included OVA challenge, were conducted 2 weeks after sensitization. Approximately 1 hour before OVA challenge, the animals were anaesthetized with an intraperitoneal injection of 50 mg/kg pentobarbital. Anesthesia was prolonged by intravenous infusion of pentobarbital (15 mg/kg/h) via the jugular vein. A tracheal cannula was introduced after tracheotomy for artificial ventilation. The internal jugular vein was cannulated for drug injection while the left carotid artery was cannulated for measuring blood pressure and heart rate. The test compounds or combinations of compounds were administered orally 2 hours before the OVA challenge. Pyrilamin (anti-histaminic) is injected intravenously at 2 mg/kg, 6 minutes before OVA challenge in order to record the non histamine-related bronchospasm. The OVA challenge induces mast cell degranulation responsible for the bronchospasm due to the release into the lung of inflammatory mediators such as histamine, leukotrienes, prostaglandins and tromboxanes. The pre-treatment of the guinea pigs with pyrilamin prevents the part of the bronchospasm induced by histamine (around 40 to 50% of the bronchospasm). 30 Minutes after the beginning of air flow and blood pressure measurements, bronchoconstriction is triggered by an OVA challenge given at a fixed dose of 50 μg/kg inhaled.
The control group comprises 12 guinea-pigs, test compounds comprise 2 to 4 guinea-pigs. At the end of the experiment, animals are euthanized by an overdose of pentobarbital (100 mg/kg i.v.).
OVA challenge in control guinea-pigs induces an overflow of 33 (±10) ml which is used as 100% bronchospasm. Bronchoprotection of the drug (i.e. inhibition of OVA broncho-constriction) is expressed as a percentage of inhibition of the increase in overflow induced by OVA in the control animals.

[1] = CRTH2 antagonist (1) 0.001 mg/kg p.o. alone
[2] = CRTH2 antagonist (1) 0.003 mg/kg p.o. alone
[3] = CRTH2 antagonist (1) 0.01 mg/kg p.o. alone
[4] = CRTH2 antagonist (1) 0.03 mg/kg p.o. alone
[5] = CRTH2 antagonist (1) 0.1 mg/kg p.o. alone
[6] = CRTH2 antagonist (1) 0.3 mg/kg p.o. alone
[7] = CRTH2 antagonist (1) 1.0 mg/kg p.o. alone
[8] = CRTH2 antagonist (1) 3.0 mg/kg p.o. alone
[9] = CRTH2 antagonist (1) 10.0 mg/kg p.o. alone

`CN(C)c1nc(Cc2ccc(NC(=O)c3ccc(C(F)(F)F)cc3)cc2)nc(N(C)C)c1CC(=O)O` [CRTH2 antagonist (1), [4,6-bis(dimethylamino)-2-(4-(4-(trifluoromethyl)benzamido)-benzyl)pyrimidin-5-yl]acetic acid] was tested, and the bronchoprotection [1] was 0%, the overflow [1] was 38 mL and the bronchoprotection [2] was 0%. The overflow [2] was 35 mL, the bronchoprotection [3] was 0% and the overflow [3] was 40 mL. It also gave a bronchoprotection [4] of 0%, an overflow [4] of 33 mL and a bronchoprotection [5] of 0%. It also gave an overflow [5] of 41 mL, a bronchoprotection [6] of 24% and an overflow [6] of 25 mL. For the same compound, the bronchoprotection [7] was 42%, the overflow [7] was 19 mL and the bronchoprotection [8] was 64%. For the same compound, the overflow [8] was 12 mL, the bronchoprotection [9] was 70% and the overflow [9] was 10 mL.
`O=C(Nc1c(Cl)cncc1Cl)c1ccc(OC(F)F)c(OCC2CC2)c1` [Roflumilast, roflumilast, reference compound] was tested, and the overflow (Roflumilast 0.03 mg/kg p.o. alone, 2 hours before OVA challenge) was 28 mL and the bronchoprotection (Roflumilast 0.03 mg/kg p.o. alone, 2 hours before OVA challenge, inhibition of OVA-induced overflow vs control) was 15%.
